Test results: ChEMBL document CHEMBL5104173, “Combining monoamine oxidase B and semicarbazide-sensitive amine oxidase enzyme inhibition to address inflammatory disease” (Bioorg Med Chem Lett, 2022)
One block for each molecule: values may come before it. Calls of active or inactive are those of the source. The calls are words filed in the database; no cut-off is given here.

Assays:
[1] = biological target: recombinant human DAO (diamine oxidase) (Homo sapiens, UniProt P19801); assay: Inhibition of human recombinant DAO
[2] = biological target: T1, Amine oxidase [flavin-containing] B (Homo sapiens, UniProt P27338); assay: Inhibition of human recombinant MAO-B
T1 sequence (P27338 whole entry): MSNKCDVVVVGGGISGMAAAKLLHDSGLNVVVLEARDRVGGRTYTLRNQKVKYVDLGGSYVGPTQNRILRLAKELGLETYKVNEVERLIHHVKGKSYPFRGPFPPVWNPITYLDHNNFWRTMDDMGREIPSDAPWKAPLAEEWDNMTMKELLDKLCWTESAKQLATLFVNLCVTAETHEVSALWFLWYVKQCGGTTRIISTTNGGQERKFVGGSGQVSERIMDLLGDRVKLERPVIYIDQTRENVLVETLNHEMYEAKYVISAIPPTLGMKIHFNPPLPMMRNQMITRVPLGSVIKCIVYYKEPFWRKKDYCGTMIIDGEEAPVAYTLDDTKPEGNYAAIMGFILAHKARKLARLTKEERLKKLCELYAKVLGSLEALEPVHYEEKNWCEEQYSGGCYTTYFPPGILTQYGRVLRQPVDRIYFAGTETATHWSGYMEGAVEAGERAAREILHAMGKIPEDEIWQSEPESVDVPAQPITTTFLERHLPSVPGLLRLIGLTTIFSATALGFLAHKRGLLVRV

[3] = biological target: T2, Amine oxidase [flavin-containing] A (Homo sapiens, UniProt P21397); assay: Inhibition of human recombinant MAO-A
T2 sequence (P21397 whole entry): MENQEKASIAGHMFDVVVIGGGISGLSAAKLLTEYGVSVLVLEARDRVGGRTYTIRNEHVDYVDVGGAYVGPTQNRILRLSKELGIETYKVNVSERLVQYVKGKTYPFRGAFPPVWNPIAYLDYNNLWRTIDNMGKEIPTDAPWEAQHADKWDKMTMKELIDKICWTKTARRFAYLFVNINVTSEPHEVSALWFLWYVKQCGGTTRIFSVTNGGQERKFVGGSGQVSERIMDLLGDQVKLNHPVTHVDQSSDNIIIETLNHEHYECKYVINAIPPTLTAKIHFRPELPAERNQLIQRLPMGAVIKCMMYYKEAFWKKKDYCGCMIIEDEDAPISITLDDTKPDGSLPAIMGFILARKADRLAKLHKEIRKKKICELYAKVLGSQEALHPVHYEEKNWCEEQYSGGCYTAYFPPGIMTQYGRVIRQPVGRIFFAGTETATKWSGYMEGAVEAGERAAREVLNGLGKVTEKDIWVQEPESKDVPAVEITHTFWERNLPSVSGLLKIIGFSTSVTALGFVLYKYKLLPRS

[4] = biological target: Cytochrome P450 2C9 (Homo sapiens, UniProt P11712); assay: Inhibition of CYP2C9 (unknown origin); type: ADME
[5] = biological target: T3, Amine oxidase [flavin-containing] B (Mus musculus, UniProt Q8BW75); assay: Inhibition of mouse muscle MAO-B; type: tissue-based, Muscle tissue
T3 sequence (Q8BW75 whole entry): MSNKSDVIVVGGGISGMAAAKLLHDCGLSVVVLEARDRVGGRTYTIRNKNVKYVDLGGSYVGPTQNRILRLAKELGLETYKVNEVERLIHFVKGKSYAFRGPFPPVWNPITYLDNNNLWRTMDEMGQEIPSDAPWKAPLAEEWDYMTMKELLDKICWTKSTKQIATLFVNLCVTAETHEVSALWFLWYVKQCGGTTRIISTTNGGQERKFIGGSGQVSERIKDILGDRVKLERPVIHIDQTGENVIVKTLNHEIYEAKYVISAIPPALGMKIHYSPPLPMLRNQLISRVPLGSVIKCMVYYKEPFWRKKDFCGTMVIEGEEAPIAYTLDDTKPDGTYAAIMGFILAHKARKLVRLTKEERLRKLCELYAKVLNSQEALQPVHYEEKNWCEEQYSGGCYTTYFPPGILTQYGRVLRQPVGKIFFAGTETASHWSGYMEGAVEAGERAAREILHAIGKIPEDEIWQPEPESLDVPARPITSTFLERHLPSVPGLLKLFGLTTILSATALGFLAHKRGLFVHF

[6] = Plasma protein binding in human; type: ADME, cell-free; details: read-out: PPB (converted)
[7] = test system: Rattus norvegicus; assay: In vivo inhibition of MOA-B in Wistar rat brain at 0.6 mg/kg, po administered as single dose and measured upto 48 hrs; type: functional, organism-based
[8] = Tmax in Wistar rat at 3 mg/kg, po; type: ADME, organism-based; details: in vivo
[9] = AUC (0 to infinity) in Wistar rat at 3 mg/kg, po; type: ADME, organism-based; set-up: time infinity, dose 3 mg/kg, route po; details: in vivo
[10] = biological target: Cytochrome P450 2C19 (Homo sapiens, UniProt P33261); assay: Inhibition of CYP2C19 (unknown origin)
[11] = Stability in human microsomes measured after 1 hr; type: ADME, Microsome; details: read-out: Stability
[12] = biological target: Lysine-specific histone demethylase 1A (Homo sapiens, UniProt O60341); assay: Inhibition of LSD1 (unknown origin)
[13] = test system: Mus musculus; assay: Antiinflammatory activity against mouse air pouch model of carrageenan-induced oedema assessed as reduction in neutrophil number in infiltrate at 0.6 mg/kg, po administered as single dose for 1 hr followed byb carrageenan administration; type: functional, organism-based
[14] = test system: Rattus norvegicus; assay: In vivo inhibition of SSAO in Wistar rat adipose tissue at 0.6 mg/kg, po administered as single dose and measured upto 48 hrs; type: functional, organism-based
[15] = biological target: T4, Protein-lysine 6-oxidase (Bos taurus, UniProt P33072); assay: Inhibition of bovine aorta LOX; type: tissue-based
T4 sequence (P33072 whole entry): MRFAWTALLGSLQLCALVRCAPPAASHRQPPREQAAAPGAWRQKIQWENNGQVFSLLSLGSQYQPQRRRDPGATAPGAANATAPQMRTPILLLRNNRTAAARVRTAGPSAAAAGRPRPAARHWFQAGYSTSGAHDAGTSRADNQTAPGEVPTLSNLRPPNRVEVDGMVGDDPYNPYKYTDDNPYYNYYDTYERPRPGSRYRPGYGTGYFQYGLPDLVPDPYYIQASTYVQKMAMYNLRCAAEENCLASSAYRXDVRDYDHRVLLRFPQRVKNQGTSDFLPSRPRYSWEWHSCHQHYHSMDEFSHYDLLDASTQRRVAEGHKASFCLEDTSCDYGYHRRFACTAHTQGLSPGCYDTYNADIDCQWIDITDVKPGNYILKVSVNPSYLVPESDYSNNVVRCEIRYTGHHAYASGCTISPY

[16] = test system: Mus musculus; assay: Antiinflammatory activity against mouse air pouch model of carrageenan-induced oedema assessed as reduction in total inflammatory cell volume into air pouch at 0.6 to 6 mg/kg, po administered as single dose for 1 hr followed byb carrageenan administration; type: functional, organism-based; details: dose 0.6-6 mg/kg
[17] = Cmax in Wistar rat at 3 mg/kg, po; type: ADME, organism-based; set-up: dose 3 mg/kg, route po; details: in vivo
[18] = Plasma protein binding in rat; type: ADME, cell-free; details: read-out: PPB (converted)
[19] = Stability in human hepatocytes assessed as parent compound remaining measured after 1 hr; type: ADME, cell-based, Hepatocyte; details: read-out: Stability
[20] = test system: Rattus norvegicus; assay: In vivo inhibition of MOA-A in Wistar rat brain at 3 mg/kg, po administered as single dose and measured upto 48 hrs; type: functional, organism-based
[21] = test system: Mus musculus; assay: Antineuroinflammatory activity in PLP-induced autoimmune encephalomyelitis mouse model assessed as reduction in AUC of clinical score at 0.6 to 6 mg/kg/day, po administered once daily via oral gavage starting from day 13 post PLP sensibilization and measured on day 30; type: functional, organism-based; details: dose 0.6-6 mg/kg/day, time 17.0 day
[22] = biological target: Cytochrome P450 3A4 (Homo sapiens, UniProt P08684); assay: Inhibition of CYP3A4 (unknown origin); type: ADME
[23] = Plasma protein binding in dog; type: ADME, cell-free, Canis lupus familiaris; details: read-out: PPB (converted)
[24] = biological target: T5, Lysyl oxidase homolog 2 (Homo sapiens, UniProt Q9Y4K0); assay: Inhibition of recombinant human LOXL-2
T5 sequence (Q9Y4K0 whole entry): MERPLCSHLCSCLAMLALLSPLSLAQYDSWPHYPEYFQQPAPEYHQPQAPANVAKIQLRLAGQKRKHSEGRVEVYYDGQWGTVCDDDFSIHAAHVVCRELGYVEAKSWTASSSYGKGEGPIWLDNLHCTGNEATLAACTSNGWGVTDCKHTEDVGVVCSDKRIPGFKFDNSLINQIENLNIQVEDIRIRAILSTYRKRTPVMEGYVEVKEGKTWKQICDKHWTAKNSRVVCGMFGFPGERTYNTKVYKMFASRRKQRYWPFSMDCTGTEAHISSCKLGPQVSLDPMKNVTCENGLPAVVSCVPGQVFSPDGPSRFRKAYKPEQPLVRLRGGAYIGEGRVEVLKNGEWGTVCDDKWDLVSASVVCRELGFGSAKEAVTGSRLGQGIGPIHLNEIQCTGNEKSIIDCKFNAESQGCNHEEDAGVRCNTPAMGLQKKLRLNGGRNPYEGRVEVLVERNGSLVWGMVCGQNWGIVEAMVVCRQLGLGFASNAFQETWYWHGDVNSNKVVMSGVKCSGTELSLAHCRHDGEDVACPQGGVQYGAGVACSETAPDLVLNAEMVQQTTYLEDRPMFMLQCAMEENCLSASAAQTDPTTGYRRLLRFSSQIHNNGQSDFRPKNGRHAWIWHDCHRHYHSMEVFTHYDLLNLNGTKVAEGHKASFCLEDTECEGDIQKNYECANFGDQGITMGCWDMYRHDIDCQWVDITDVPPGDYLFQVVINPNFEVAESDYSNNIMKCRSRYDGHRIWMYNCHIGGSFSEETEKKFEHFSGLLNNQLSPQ

[25] = biological target: T6, Cytochrome P450 1A2 (Homo sapiens, UniProt P05177); assay: Inhibition of CYP1A2 (unknown origin); type: ADME
T6 sequence (P05177 whole entry): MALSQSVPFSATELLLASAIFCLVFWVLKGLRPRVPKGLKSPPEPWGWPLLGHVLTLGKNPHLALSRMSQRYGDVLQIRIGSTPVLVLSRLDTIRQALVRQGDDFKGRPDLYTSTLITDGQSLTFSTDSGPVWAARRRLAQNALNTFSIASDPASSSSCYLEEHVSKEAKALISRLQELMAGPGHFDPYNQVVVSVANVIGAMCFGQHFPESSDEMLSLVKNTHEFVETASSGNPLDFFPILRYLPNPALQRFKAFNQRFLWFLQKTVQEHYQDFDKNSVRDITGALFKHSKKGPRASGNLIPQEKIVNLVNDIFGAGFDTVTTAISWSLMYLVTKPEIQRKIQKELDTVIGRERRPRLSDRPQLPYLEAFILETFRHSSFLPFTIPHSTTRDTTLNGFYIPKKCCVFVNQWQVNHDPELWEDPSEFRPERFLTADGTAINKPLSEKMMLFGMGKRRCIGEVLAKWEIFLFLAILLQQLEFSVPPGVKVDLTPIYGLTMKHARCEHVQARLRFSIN

[26] = Stability in rat microsomes measured after 1 hr; type: ADME, Microsome; details: read-out: Stability
[27] = Stability in dog microsomes measured after 1 hr; type: ADME, Canis lupus familiaris, Microsome; details: read-out: Stability
[28] = biological target: Cytochrome P450 2D6 (Homo sapiens, UniProt P10635); assay: Inhibition of CYP2D6 (unknown origin); type: ADME
[29] = Inhibition of potassium channel (unknown origin) at 10 uM; type: toxicity; details: human
[30] = Inhibition of sodium channel (unknown origin) at 10 uM; type: toxicity; details: human
[31] = Inhibition of calcium channel (unknown origin) at 10 uM; type: toxicity; details: human
[32] = Permeability in MDCK-MDR1 cells; type: ADME, cell-based, Canis lupus familiaris; details: dog

Sequence of Cytochrome P450 2C9 (P11712 whole entry): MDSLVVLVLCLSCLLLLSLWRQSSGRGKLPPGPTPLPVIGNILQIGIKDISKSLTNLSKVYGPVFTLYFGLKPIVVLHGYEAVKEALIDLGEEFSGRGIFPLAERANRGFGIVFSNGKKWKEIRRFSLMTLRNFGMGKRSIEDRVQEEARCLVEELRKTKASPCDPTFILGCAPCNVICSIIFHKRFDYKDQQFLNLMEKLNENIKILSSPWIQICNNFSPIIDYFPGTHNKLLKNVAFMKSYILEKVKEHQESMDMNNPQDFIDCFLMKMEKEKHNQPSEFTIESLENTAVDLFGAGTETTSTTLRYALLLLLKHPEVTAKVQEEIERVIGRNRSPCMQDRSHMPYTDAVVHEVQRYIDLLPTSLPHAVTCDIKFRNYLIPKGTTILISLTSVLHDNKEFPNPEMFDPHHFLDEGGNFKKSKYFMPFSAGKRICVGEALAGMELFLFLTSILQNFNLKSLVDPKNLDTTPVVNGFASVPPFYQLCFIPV
Sequence of Cytochrome P450 3A4 (P08684 whole entry): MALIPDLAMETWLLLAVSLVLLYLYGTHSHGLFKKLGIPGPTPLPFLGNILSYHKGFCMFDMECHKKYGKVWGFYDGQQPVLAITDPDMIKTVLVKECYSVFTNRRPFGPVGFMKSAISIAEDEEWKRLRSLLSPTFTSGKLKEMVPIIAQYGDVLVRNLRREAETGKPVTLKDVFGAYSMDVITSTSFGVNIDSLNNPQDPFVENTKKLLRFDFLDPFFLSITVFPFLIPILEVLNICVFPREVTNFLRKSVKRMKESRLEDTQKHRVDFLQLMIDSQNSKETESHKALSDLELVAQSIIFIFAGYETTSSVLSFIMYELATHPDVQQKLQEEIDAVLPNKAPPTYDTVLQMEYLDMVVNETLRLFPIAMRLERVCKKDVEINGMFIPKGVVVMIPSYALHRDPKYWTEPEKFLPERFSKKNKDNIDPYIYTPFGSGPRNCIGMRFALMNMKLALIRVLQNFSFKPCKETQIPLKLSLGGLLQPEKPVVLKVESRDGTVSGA
Sequence of Cytochrome P450 2D6 (P10635 whole entry): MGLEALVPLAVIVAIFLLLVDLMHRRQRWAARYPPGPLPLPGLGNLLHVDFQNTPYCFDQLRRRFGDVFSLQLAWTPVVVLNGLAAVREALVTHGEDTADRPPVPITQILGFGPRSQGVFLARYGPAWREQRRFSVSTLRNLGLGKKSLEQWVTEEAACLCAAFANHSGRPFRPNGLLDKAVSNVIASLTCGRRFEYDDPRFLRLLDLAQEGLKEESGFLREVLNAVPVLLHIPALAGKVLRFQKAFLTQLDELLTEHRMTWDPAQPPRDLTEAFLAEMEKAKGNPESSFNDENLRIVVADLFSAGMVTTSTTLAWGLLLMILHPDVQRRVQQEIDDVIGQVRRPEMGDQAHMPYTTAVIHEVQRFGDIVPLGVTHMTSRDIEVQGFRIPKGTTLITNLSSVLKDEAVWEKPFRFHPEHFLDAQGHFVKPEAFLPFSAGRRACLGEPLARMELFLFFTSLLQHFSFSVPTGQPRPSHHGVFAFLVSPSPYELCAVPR
Sequence of Cytochrome P450 2C19 (P33261 whole entry): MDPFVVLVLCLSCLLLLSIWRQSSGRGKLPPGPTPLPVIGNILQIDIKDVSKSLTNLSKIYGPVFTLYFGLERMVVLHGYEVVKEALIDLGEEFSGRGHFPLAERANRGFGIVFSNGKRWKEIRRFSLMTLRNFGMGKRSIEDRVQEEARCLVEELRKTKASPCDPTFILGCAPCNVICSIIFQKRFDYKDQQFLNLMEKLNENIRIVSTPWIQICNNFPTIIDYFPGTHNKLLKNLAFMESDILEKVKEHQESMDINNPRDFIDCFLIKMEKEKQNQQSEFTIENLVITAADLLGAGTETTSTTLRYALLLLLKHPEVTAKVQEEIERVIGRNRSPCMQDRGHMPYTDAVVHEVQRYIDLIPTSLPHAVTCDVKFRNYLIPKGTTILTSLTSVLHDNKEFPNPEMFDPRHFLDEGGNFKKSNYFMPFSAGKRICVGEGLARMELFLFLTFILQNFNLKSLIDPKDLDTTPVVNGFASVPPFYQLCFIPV

IC50 [1]: > 30000 nM | IC50 [2]: 3 nM | IC50 [3]: 160 nM
Structure (SMILES): Cc1ccccc1OC/C(=C/F)CN

IC50 [1]: 1600 nM | IC50 [2]: 9 nM | IC50 [3]: 2500 nM
Structure (SMILES): NCC(=CF)COc1ccccc1 (mixture of isomers)

IC50 [1]: > 30000 nM | IC50 [2]: 2 nM | IC50 [3]: 750 nM
Structure (SMILES): NC/C(=C/F)CCc1ccc(F)cc1 [MOFEGILINE]

IC50 [4]: > 10000 nM | IC50 [5]: 0.4 nM | IC50 [1]: > 30000 nM | fraction unbound [6]: 0.24 | Tmax [8]: 20 min | AUC(0-inf) [9]: 265 ng·h/mL | IC50 [10]: > 10000 nM | remaining at 1 h [11]: 84% | IC50 [12]: > 30000 nM | IC50 [15]: > 30000 nM | Cmax [17]: 199 ng/mL | fraction unbound [18]: 0.51 | remaining at 1 h [19]: > 95% | IC50 [22]: > 10000 nM | IC50 [3]: 2400 nM | fraction unbound [23]: 0.42 | IC50 [24]: > 30000 nM | IC50 [25]: > 10000 nM | remaining at 1 h [26]: 67% | remaining at 1 h [27]: 92% | IC50 [28]: > 10000 nM
Structure (SMILES): Cl.NC/C(=C\F)[C@H]1Cc2ccccc2O1
inhibition [7]: Active | Activity [13]: Active | inhibition [14]: Active | Activity [16]: Active | inhibition [20]: Active | Activity [21]: Active

IC50 [3]: 100 nM
Structure (SMILES): NC/C(=C/F)[C@@H]1Cc2ccccc2O1

IC50 [1]: > 30000 nM | IC50 [3]: 6800 nM
Structure (SMILES): NC/C(=C/F)[C@H]1Cc2ccccc2O1

IC50 [1]: > 30000 nM | IC50 [3]: 460 nM
Structure (SMILES): Cl.NCC(=CF)C1Cc2ccccc2O1 (mixture of isomers)
inhibition (INH) [29]: Active | inhibition (INH) [30]: Active | inhibition (INH) [31]: Active

IC50 [1]: 780 nM | IC50 [2]: 4 nM | IC50 [3]: 14000 nM
Structure (SMILES): NCC(=CF)COc1ccc(F)cc1 (mixture of isomers)

IC50 [1]: > 30000 nM | IC50 [3]: 750 nM | permeability [32]: Permeable
Structure (SMILES): Cl.NC/C(=C\F)[C@@H]1Cc2ccccc2O1

IC50 [1]: > 30000 nM | IC50 [2]: 13 nM | IC50 [3]: 4000 nM
Structure (SMILES): NC/C(=C\F)COc1ccccc1
